Consider four compounds from US20080009418A1, “Selective Inhibitors” (Alchemia LTD., priority 2004, published 2008).

For assay [1], the target named is T1, Human δ-opioid (DOP) (Homo sapiens, UniProt P41143).
T1 construct: purchased Perkin Elmer Biosignal
As to the kind of experiment: Radioligand binding, human δ-opioid (DOP) membranes, FlashPlate, [3H]-Bremazocine. The note with it: compound at 10 μM; for A1: inhibition of radioligand binding: human DOP membranes. The gist of the method: (§1)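 Cloned human receptor membranes were coated onto FlashPlate wells and incubated with radioligand and compound (added from a 0.5 mM DMSO daughter plate) for 1 hour at room temperature in the dark. Scintillation counting gave percent inhibition, with DMSO defining total and reference ligand defining non-specific binding.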

Assay [2] deals with T2, Human κ-Opioid (KOP) (Homo sapiens, UniProt P41145).
T2 construct: purchased Perkin Elmer Biosignal
T2 sequence (P41145 whole entry): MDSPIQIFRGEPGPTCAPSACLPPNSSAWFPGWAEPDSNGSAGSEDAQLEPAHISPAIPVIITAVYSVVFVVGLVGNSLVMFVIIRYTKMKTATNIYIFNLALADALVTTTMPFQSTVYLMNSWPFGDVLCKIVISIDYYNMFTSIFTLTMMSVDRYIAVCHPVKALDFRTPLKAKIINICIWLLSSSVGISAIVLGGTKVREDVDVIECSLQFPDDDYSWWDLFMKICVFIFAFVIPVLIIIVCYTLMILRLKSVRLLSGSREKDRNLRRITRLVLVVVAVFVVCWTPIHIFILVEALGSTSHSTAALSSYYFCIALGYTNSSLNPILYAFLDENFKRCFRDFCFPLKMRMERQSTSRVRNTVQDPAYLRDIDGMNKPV
The experiment in a line: Radioligand binding, human κ-opioid (KOP) membranes, filtration, [3H]-Diprenorphine. The note with it: compound at 10 μM; for A2: inhibition of radioligand binding: human KOP membranes. The gist of the method:
(§2)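 Membranes from cloned human receptors were incubated with compound and radioligand for 1 hour at room temperature. Bound ligand was collected on 0.3% PEI-soaked filters, washed with cold 50 mM Tris-HCl pH 7.4, and counted by scintillation. Percent inhibition was computed against DMSO totals and reference-ligand nonspecific wells.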

The target in assay [3] is T3, Human Melanocortin (MC3) (Homo sapiens, UniProt P41968).
T3 construct: purchased Perkin Elmer Biosignal
T3 sequence (P41968 whole entry): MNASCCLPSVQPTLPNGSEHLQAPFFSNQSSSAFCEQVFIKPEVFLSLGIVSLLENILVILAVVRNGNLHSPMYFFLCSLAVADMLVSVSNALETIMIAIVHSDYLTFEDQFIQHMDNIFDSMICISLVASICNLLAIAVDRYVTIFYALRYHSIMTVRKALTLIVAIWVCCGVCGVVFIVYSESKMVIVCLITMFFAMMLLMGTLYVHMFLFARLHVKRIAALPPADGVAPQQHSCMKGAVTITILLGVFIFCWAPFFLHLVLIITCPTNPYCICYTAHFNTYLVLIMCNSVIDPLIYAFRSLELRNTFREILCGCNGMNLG
As to the kind of experiment: Radioligand binding, human melanocortin MC3 membranes, FlashPlate, [125I]-NDP-αMSH. The note with it: compound at 10 μM; for A3: inhibition of radioligand binding: human MC3 membranes. The gist of the method:
as §1

Assay [4] has as its target T4, Human Melanocortin (MC4) (Homo sapiens, UniProt P32245).
T4 construct: purchased Perkin Elmer Biosignal
The experiment in a line: Radioligand binding, human melanocortin MC4 membranes, FlashPlate, [125I]-NDP-αMSH. The note with it: compound at 10 μM; for A4: inhibition of radioligand binding: human MC4 membranes. The gist of the method:
as §1

Assay [5] deals with T5, Human melanocortin (MC5) (Homo sapiens, UniProt P33032).
T5 construct: purchased Perkin Elmer Biosignal
T5 sequence (P33032 whole entry): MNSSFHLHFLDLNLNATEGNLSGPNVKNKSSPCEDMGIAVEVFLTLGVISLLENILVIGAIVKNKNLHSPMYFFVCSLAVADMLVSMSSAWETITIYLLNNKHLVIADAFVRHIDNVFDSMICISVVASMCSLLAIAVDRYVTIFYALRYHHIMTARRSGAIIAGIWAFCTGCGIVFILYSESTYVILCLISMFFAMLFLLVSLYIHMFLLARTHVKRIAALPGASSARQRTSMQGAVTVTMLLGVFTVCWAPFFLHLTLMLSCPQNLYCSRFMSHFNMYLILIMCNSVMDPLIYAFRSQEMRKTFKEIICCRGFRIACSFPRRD
The experiment in a line: Radioligand binding, human melanocortin MC5 membranes, FlashPlate, [125I]-NDP-αMSH. The note with it: compound at 10 μM; for A5: inhibition of radioligand binding: human MC5 membranes. In outline: as §1

The target of assay [6] is T6, Human melanin-concentrating hormone (MCH1) (Homo sapiens, UniProt Q99705).
T6 construct: purchased Perkin Elmer Biosignal
T6 sequence (Q99705 whole entry): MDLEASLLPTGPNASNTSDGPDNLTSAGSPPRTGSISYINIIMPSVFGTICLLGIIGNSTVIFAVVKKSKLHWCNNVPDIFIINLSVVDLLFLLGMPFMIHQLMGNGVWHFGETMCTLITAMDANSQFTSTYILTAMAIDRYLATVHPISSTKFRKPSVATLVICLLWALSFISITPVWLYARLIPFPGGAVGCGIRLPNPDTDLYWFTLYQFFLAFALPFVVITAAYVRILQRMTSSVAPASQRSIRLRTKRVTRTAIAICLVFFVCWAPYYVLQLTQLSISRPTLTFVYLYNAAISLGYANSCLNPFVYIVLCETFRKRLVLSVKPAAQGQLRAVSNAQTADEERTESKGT
As to the kind of experiment: Radioligand binding, human melanin-concentrating hormone MCH1 membranes, FlashPlate, [125I]-S36057. The note with it: compound at 10 μM; for A6: inhibition of radioligand binding: [125I]-S36057, human MCH1 membranes. In outline: as §1

Assay [7] concerns the target T7, Human μ-opioid (MOP) (Homo sapiens, UniProt P35372).
T7 construct: purchased Perkin Elmer Biosignal
The experiment in a line: Radioligand binding, human μ-opioid (MOP) membranes, FlashPlate, [3H]-Naloxone. The note with it: compound at 10 μM; for A7: inhibition of radioligand binding: human MOP membranes. In outline:
as §1

The target in assay [8] is T8, Human neurokinin (NK1) (Homo sapiens, UniProt P25103).
T8 construct: purchased Perkin Elmer Biosignal
T8 sequence (P25103 whole entry): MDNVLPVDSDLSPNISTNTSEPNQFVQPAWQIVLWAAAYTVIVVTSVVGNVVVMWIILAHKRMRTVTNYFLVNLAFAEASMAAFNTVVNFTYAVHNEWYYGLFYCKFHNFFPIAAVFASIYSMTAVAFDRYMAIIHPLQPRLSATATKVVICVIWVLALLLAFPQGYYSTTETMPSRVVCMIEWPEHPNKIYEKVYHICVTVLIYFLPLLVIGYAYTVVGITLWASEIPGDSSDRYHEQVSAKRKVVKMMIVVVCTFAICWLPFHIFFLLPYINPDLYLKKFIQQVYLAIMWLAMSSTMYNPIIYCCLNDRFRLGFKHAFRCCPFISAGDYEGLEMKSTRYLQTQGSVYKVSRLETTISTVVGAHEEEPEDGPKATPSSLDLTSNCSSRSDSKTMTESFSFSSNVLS
As to the kind of experiment: Radioligand binding, human neurokinin NK1 membranes, filtration, [125I]-Substance P. The note with it: compound at 10 μM; for A8: inhibition of radioligand binding: human NK1 membranes. In outline: as §2

Assay [9] addresses T9, Human neuropeptide Y (NPY-Y1) (Homo sapiens, UniProt P25929).
T9 construct: purchased Perkin Elmer Biosignal
T9 sequence (P25929 1-384): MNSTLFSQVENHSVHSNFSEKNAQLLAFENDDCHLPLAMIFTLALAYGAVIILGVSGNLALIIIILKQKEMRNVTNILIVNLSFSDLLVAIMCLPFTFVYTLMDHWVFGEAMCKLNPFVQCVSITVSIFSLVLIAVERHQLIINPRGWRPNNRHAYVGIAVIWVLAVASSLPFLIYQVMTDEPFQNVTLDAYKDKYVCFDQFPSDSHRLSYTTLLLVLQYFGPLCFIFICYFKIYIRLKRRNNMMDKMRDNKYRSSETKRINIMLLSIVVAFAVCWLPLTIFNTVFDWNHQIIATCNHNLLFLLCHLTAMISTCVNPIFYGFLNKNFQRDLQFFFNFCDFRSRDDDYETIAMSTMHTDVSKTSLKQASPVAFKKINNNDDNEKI
As to the kind of experiment: Radioligand binding, human neuropeptide Y NPY-Y1 membranes, FlashPlate, [125I]-PYY. The note with it: compound at 10 μM. The gist of the method: as §1

The target of assay [10] is T10, Human opioid (ORL1) (Homo sapiens, UniProt P41146).
T10 construct: purchased Perkin Elmer Biosignal
T10 sequence (P41146 whole entry): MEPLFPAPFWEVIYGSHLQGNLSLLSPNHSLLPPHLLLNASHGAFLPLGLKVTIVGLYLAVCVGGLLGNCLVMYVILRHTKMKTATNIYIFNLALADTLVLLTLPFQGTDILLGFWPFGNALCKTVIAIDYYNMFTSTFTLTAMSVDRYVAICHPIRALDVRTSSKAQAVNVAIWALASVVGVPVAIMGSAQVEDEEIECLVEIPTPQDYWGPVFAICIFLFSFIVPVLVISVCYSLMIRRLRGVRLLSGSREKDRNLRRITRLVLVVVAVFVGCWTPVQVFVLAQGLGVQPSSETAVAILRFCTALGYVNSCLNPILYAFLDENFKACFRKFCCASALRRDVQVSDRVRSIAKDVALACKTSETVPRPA
The experiment in a line: Radioligand binding, human opioid ORL1 membranes, FlashPlate, [125I]-Nociceptin. The note with it: compound at 10 μM. In outline: as §1

Assay [11] addresses T11, Mouse urotensin (mUR2) (Mus musculus, UniProt Q8VIH9).
T11 construct: purchased Perkin Elmer Biosignal
T11 sequence (Q8VIH9 1-385): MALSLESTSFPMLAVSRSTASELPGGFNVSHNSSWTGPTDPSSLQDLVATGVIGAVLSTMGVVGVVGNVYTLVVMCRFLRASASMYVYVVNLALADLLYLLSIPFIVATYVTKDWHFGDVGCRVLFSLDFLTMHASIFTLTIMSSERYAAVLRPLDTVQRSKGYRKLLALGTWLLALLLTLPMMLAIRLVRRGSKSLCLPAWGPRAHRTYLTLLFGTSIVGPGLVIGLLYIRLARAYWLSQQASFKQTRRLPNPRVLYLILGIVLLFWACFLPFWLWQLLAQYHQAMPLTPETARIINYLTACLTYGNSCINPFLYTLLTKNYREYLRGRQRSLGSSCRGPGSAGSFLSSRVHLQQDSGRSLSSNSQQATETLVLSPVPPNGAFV
The experiment in a line: Radioligand binding, mouse urotensin mUR2 membranes, FlashPlate, [125I]-Urotensin II. The note with it: compound at 10 μM; for A11: inhibition of radioligand binding: mouse mUR2 membranes. The gist of the method:
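Cloned mouse urotensin (mUR2) receptor membranes from Perkin Elmer Biosignal were immobilized in FlashPlate microplates using a proprietary coating. Each well got 19.5 μl buffer, then 0.5 μl of DMSO, reference ligand, or compound. Adding 5 μl of [125I]-Urotensin II, diluted to 5× final concentration in binding buffer, started binding. Plates were sealed with TopSeal-A and incubated 1 hour at room temperature in the dark. Wells were counted for 30 seconds each on a TopCount after a 60-second delay, and percentage inhibition was calculated.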

[12] abbreviates: [125I]-PYY, human NPY-Y1 membranes.

T1 sequence (P41143 whole entry): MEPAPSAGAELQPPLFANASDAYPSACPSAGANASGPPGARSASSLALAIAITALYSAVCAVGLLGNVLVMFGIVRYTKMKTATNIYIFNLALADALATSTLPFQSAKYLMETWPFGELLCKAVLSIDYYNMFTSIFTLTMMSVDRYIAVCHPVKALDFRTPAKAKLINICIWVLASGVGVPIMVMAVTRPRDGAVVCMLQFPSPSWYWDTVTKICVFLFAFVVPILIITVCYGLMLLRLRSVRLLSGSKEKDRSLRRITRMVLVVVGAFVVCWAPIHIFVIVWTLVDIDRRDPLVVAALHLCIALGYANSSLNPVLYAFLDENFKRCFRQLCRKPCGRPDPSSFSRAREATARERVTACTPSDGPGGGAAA
T4 sequence (P32245 whole entry): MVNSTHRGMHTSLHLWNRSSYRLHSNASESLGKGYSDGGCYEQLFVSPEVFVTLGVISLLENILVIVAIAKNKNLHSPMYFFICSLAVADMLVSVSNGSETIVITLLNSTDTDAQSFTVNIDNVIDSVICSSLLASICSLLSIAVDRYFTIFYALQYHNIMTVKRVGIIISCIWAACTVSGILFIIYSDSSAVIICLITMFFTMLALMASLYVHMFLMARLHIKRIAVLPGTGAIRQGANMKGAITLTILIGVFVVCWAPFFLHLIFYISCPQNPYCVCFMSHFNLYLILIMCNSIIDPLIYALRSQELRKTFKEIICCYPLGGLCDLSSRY
T7 sequence (P35372 whole entry): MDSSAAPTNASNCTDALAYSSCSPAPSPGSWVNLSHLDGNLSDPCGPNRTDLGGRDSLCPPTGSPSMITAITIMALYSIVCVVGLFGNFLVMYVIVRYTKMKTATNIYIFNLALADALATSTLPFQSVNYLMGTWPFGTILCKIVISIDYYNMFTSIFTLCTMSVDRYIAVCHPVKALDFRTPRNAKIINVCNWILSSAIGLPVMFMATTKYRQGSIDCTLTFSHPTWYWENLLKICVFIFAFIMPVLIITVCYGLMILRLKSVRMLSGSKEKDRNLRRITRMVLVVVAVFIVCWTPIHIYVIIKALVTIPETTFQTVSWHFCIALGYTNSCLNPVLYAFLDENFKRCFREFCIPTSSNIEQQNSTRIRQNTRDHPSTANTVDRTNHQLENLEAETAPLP

`COC[C@H]1OC(OCc2ccccc2)[C@H](NC(=O)CNC(=N)N)[C@@H](OCc2ccc(-c3ccccc3)cc2)[C@@H]1O` (some centres unmarked) [compound 23]: in [1] (human δ-opioid (DOP) membranes), the “A1 radioligand binding inhibition” value is “− (“−” indicates less than 50% inhibition at 10 μM)”. For the same compound, the “A2 radioligand binding inhibition” value in assay [2] (human κ-opioid (KOP) membranes) is recorded as “− (“−” indicates less than 50% inhibition at 10 μM)”. The “A3 radioligand binding inhibition” value in [3] (human melanocortin MC3 membranes) is reported as “− (“−” indicates less than 50% inhibition at 10 μM)”. In assay [4] (human melanocortin MC4 membranes), the “A4 radioligand binding inhibition” value is reported as “− (“−” indicates less than 50% inhibition at 10 μM)”. In addition, in assay [5] (human melanocortin MC5 membranes), the “A5 radioligand binding inhibition” value is listed as “+ (“+” indicates greater than 50% inhibition at 10 μM)”. In assay [6] (human MCH1 membranes), the “A6 radioligand binding inhibition” value was “+ (“+” indicates greater than 50% inhibition at 10 μM)”. Also, the “A7 radioligand binding inhibition” value in [7] (human μ-opioid (MOP) membranes) is given as “− (“−” indicates less than 50% inhibition at 10 μM)”. Further, the “A8 radioligand binding inhibition” value in [8] (human neurokinin NK1 membranes) is recorded as “+ (“+” indicates greater than 50% inhibition at 10 μM)”. In addition, the “A9 radioligand binding inhibition” value in [9] (human NPY-Y1 membranes) was “− (“−” indicates less than 50% inhibition at 10 μM)”. For the same compound, in [10] (human ORL1 membranes), the “A10 radioligand binding inhibition” value was “− (“−” indicates less than 50% inhibition at 10 μM)”. In addition, the “A11 radioligand binding inhibition” value in assay [11] (mouse urotensin mUR2 membranes) is reported as “− (“−” indicates less than 50% inhibition at 10 μM)”.

For `N=C(N)NCC(=O)NC1C(OCc2ccc(Cl)cc2)OC(COCc2ccccc2)C(O)C1OCc1ccc(-c2ccccc2)cc1` (centres unmarked) [compound 424], the “A1: inhibition of radioligand binding” value in [1] ([3H]-Bremazocine) is “− (“−” indicates less than 50% inhibition at 10 μM)”. Moreover, the “A2: inhibition of radioligand binding” value in assay [2] ([3H]-Diprenorphine) is given as “− (“−” indicates less than 50% inhibition at 10 μM)”. Further, the “A3: inhibition of radioligand binding” value in assay [3] ([125I]-NDP-αMSH) is on record as “+ (“+” indicates greater than 50% inhibition at 10 μM)”. Besides, in assay [4] ([125I]-NDP-αMSH), the “A4: inhibition of radioligand binding” value is on record as “+ (“+” indicates greater than 50% inhibition at 10 μM)”. The “A5: inhibition of radioligand binding” value in assay [5] ([125I]-NDP-αMSH) is listed as “+ (“+” indicates greater than 50% inhibition at 10 μM)”. For the same compound, in [6], the “A6: inhibition of radioligand binding” value is reported as “− (“−” indicates less than 50% inhibition at 10 μM)”. Also, the “A7: inhibition of radioligand binding” value in assay [7] ([3H]-Naloxone) is reported as “− (“−” indicates less than 50% inhibition at 10 μM)”. Also, the “A8: inhibition of radioligand binding” value in assay [8] ([125I]-Substance P) is recorded as “+ (“+” indicates greater than 50% inhibition at 10 μM)”. Moreover, the “A9: inhibition of radioligand binding” value in assay [9] (setting [12]) is given as “− (“−” indicates less than 50% inhibition at 10 μM)”. Moreover, the “A10: inhibition of radioligand binding” value in assay [10] ([125I]-Nociceptin, human ORL1 membranes) is “− (“−” indicates less than 50% inhibition at 10 μM)”. The “A11: inhibition of radioligand binding” value in assay [11] ([125I]-Urotensin II) is given as “− (“−” indicates less than 50% inhibition at 10 μM)”.

Turning to `CSC1OC(COCc2ccc3ccccc3c2)C(O)C(OCc2ccc3ccccc3c2)C1NC(=O)CCCN` (centres unmarked) [compound 320], the “A1: inhibition of radioligand binding, human δ-opioid (DOP)” value in assay [1] ([3H]-Bremazocine) is “− (“−” indicates less than 50% inhibition at 10 μM)”. The “A2: inhibition of radioligand binding, human κ-opioid (KOP)” value in assay [2] ([3H]-Diprenorphine) is reported as “− (“−” indicates less than 50% inhibition at 10 μM)”. Besides, the “A3: inhibition of radioligand binding, human melanocortin (MC3)” value in assay [3] ([125I]-NDP-αMSH) is recorded as “− (“−” indicates less than 50% inhibition at 10 μM)”. Moreover, the “A4: inhibition of radioligand binding, human melanocortin (MC4)” value in assay [4] ([125I]-NDP-αMSH) is given as “− (“−” indicates less than 50% inhibition at 10 μM)”. Besides, in assay [5] ([125I]-NDP-αMSH), the “A5: inhibition of radioligand binding, human melanocortin (MC5)” value is “+ (“+” indicates greater than 50% inhibition at 10 μM)”. For the same compound, the “A6: inhibition of radioligand binding, human melanin-concentrating hormone (MCH1)” value in [6] ([125I]-S36057) is “− (“−” indicates less than 50% inhibition at 10 μM)”. Also, in assay [7] ([3H]-Naloxone), the “A7: inhibition of radioligand binding, human μ-opioid (MOP)” value is recorded as “− (“−” indicates less than 50% inhibition at 10 μM)”. Besides, in assay [8] ([125I]-Substance P), the “A8: inhibition of radioligand binding, human neurokinin (NK1)” value was “+ (“+” indicates greater than 50% inhibition at 10 μM)”. The “A9: inhibition of radioligand binding, human neuropeptide Y (NPY-Y1)” value in assay [9] ([125I]-PYY) is listed as “− (“−” indicates less than 50% inhibition at 10 μM)”. The “A10: inhibition of radioligand binding, human opioid (ORL1)” value in assay [10] ([125I]-Nociceptin) is “− (“−” indicates less than 50% inhibition at 10 μM)”. Moreover, the “A11: inhibition of radioligand binding, mouse urotensin (mUR2)” value in assay [11] ([125I]-Urotensin II) is “− (“−” indicates less than 50% inhibition at 10 μM)”.

Turning to `NCCCC(=O)NC1C(OCc2ccc3ccccc3c2)OC(COCc2ccc(Cl)cc2)C(O)C1OCc1ccccc1` (centres unmarked) [compound 398], the “A1: inhibition of radioligand binding” value in assay [1] ([3H]-Bremazocine) is given as “− (“−” indicates less than 50% inhibition at 10 μM)”. The “A2: inhibition of radioligand binding” value in [2] ([3H]-Diprenorphine) is given as “− (“−” indicates less than 50% inhibition at 10 μM)”. Besides, the “A3: inhibition of radioligand binding” value in assay [3] ([125I]-NDP-αMSH, 10 µM) is “+ (“+” indicates greater than 50% inhibition at 10 μM)”. Also, the “A4: inhibition of radioligand binding” value in assay [4] ([125I]-NDP-αMSH, 10 µM) is “+ (“+” indicates greater than 50% inhibition at 10 μM)”. Further, the “A5: inhibition of radioligand binding” value in assay [5] ([125I]-NDP-αMSH) is given as “+ (“+” indicates greater than 50% inhibition at 10 μM)”. Further, the “A6: inhibition of radioligand binding” value in [6] is “− (“−” indicates less than 50% inhibition at 10 μM)”. Further, the “A7: inhibition of radioligand binding” value in assay [7] ([3H]-Naloxone) is on record as “− (“−” indicates less than 50% inhibition at 10 μM)”. Further, the “A8: inhibition of radioligand binding” value in assay [8] ([125I]-Substance P) is recorded as “+ (“+” indicates greater than 50% inhibition at 10 μM)”. For the same compound, the “A9: inhibition of radioligand binding” value in assay [9] (setting [12]) was “− (“−” indicates less than 50% inhibition at 10 μM)”. Further, in assay [10] ([125I]-Nociceptin, human ORL1 membranes, 10 µM), the “A10: inhibition of radioligand binding” value was “− (“−” indicates less than 50% inhibition at 10 μM)”. In assay [11] ([125I]-Urotensin II), the “A11: inhibition of radioligand binding” value was “− (“−” indicates less than 50% inhibition at 10 μM)”.
